Reference: publication PMC4774911, “Biochemical Screening of Five Protein Kinases from Plasmodium falciparum against 14,000 Cell-Active Compounds” (PLoS ONE, 2016)
Where two headings read alike, the source gives them in different places.

How the values were obtained:
P. falciparum 3D7 cells = conditions: Nature 2010, cited from earlier work
3D7 PFLDH [1] = test system: 3D7 PFLDH; set-up: method as in F.J. Gamo et al., Nature 2010; concentration or dose not given beside the values; conditions: downloaded from ChEMBL, ref F.J. Gamo et al., Nature 2010; cited from earlier work
DD2 [2] = test system: DD2; set-up: method as in F.J. Gamo et al., Nature 2010; conditions: downloaded from ChEMBL, ref F.J. Gamo et al., Nature 2010; cited from earlier work
[3] = target: T1, Plasmodium falciparum protein kinase 6 (PK6) (Plasmodium falciparum, UniProt Q8IDW1); test: biochemical; conditions: hits below 1 uM; read-out: PK6 IC50
T1 construct: 6-Histidine (N); made in house
T1 sequence (Q8IDW1 1-305): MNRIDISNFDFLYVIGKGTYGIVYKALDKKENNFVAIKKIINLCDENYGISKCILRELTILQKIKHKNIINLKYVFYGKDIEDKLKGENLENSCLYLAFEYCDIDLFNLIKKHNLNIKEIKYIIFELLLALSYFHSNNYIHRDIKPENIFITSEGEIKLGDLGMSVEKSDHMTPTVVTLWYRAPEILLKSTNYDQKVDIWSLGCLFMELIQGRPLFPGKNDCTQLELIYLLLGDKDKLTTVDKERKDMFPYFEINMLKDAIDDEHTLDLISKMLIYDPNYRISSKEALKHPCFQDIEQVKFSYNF

HepG2 cells = conditions: Nature 2010, cited from earlier work
3D7 PFLDH [4] = test system: 3D7 PFLDH; set-up: method as in F.J. Gamo et al., Nature 2010; conditions: downloaded from ChEMBL ref F.J. Gamo et al., Nature 2010; cited from earlier work
DD2 [5] = test system: DD2; set-up: method as in F.J. Gamo et al., Nature 2010; conditions: P. falciparum Dd2; downloaded from ChEMBL ref F.J. Gamo et al., Nature 2010; cited from earlier work
[6] = target: T2, Plasmodium falciparum calcium-dependent protein kinase 1 (CDPK1) (Plasmodium falciparum, UniProt P62344); test: CDPK1 Kinase-Glo ATP-consumption screen and dose-response; type: biochemical; conditions: hits below 1 uM; read-out: CDPK1 IC50
T2 construct: 6-Histidine (N); made in house
Experimental: Biochemical assays were performed in white 384-well plates (Nunc). Liquid transfers were done manually with 8-channel pipets. Compounds were initially tested in a single-point screen (final concentration 1 μM). […] The catalytic activity of each kinase was considered proportional to ATP consumed, as determined from measurements of residual [ATP] with the luciferase-based reagent Kinase-Glo (Promega) following incubation. Luminescence (proportional to residual [ATP]) was measured on the plate readers FLx800 (BioTek Instruments, Winooski, VT, USA) and MicroBeta^2 (PerkinElmer, Waltham, MA, USA). Incubation times were chosen to ensure near-complete ATP depletion in the absence of inhibition, thus maximizing the difference in signal between inhibited and uninhibited wells.
40 μM Syntide-2 was used as a substrate; BKI-1 [14] was used as a control inhibitor, while reaction mixtures lacking Syntide-2 were included as an additional negative control. Incubation time was 90 minutes. Reactions were terminated by adding excess EGTA (5 mM), which sequesters Ca^2+ and halts calcium-dependent kinase activity.

[7] = 3D7, downloaded from ChEMBL, ref F.J. Gamo et al.
[8] = HepG2, downloaded from ChEMBL, ref F.J. Gamo et al.
[9] = P. falciparum 3D7, downloaded from ChEMBL ref F.J. Gamo et al.
[10] = HepG2 cells, downloaded from ChEMBL ref F.J. Gamo et al.

T2 sequence (P62344 whole entry): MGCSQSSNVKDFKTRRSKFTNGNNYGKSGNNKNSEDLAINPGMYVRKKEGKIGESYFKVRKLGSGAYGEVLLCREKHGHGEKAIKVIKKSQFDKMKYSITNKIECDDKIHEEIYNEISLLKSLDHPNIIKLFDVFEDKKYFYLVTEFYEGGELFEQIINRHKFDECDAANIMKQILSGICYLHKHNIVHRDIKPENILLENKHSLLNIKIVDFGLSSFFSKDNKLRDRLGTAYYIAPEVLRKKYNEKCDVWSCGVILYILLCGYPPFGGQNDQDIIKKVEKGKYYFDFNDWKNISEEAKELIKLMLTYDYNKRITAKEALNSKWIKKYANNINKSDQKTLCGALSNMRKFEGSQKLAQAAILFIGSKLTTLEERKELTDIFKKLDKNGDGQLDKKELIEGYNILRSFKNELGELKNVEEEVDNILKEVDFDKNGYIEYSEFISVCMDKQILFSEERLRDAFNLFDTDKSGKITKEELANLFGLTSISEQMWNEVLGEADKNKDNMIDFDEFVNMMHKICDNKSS

Structure (SMILES) | PCT_IHB_3D7 (P. falciparum 3D7 cells; [7]) [%] | pXC50_3D7 (P. falciparum 3D7 cells; [7]) | PCT_INHIB_3D7_PFLDH (3D7 PFLDH [1]) [%] | PCT_INHB_DD2 (DD2 [2]) [%] | IC50 [3] [nM] | PCT_INHIB_HEPG2 (HepG2 cells; [8]) [%] | PCT_INHIB_3D7_PFLDH (3D7 PFLDH [4]) | PCT_IHB_3D7 (P. falciparum 3D7 cells; [9]) | pXC50_3D7 (P. falciparum 3D7 cells; [9]) | PCT_INHB_DD2 (DD2 [5]) | PCT_INHIB_HEPG2 (HepG2 cells; [10]) | IC50 [6] [nM]
CS(=O)(=O)Cc1cccc(Nc2ncc(Cl)c(Nc3cccnc3C(N)=O)n2)c1.Cl [TCMDC-134166] | 96 | 6.775 | 0 | 97 | 74 | 56 |  |  |  |  |  | 
CCN(CC)CCCNc1nccc(N(C)c2ccc(NC(=O)Nc3cc(C(F)(F)F)ccc3F)cc2)n1.O=C(O)C(F)(F)F [TCMDC-141634] | 94 | 5.978 | 0 | 19 | 705 | 96 |  |  |  |  |  | 
CS(=O)(=O)Cc1ccc(Nc2ncc(Cl)c(Nc3cccnc3C(N)=O)n2)cc1.Cl [TCMDC-134165] | 97 | 6.062 | 0 | 97 | 691 | 54 |  |  |  |  |  | 
CC(=O)Nc1ccc(Nc2ncc([N+](=O)[O-])c(Nc3ccccc3C(N)=O)n2)cc1.Cl [TCMDC-138731] | 98 | 6.437 | 2 | 97 | 128 | 42 |  |  |  |  |  | 
CC(C)(CNC(=O)C1CCN(Cc2ccc(Cl)cc2)CC1)c1nc(-c2ccc(Cl)c(O)c2)c(-c2ccncc2)[nH]1.Cl [TCMDC-141138] |  |  |  |  |  |  | 0 | 100 | 6.206 | 83 | 36 | 347
Cl.Oc1cc(-c2nc(-c3ccccc3)[nH]c2-c2ccncc2)ccc1Cl [TCMDC-139660] |  |  |  |  |  |  | 0 | 96 | 6.089 | 91 | 64 | 975
COc1cc(-c2nc(C(C)(C)CN)[nH]c2-c2ccncc2)ccc1Br.Cl [TCMDC-140674] |  |  |  |  |  |  | 1 | 97 | 6.114 | 95 | 17 | 159
CC(C)(CNCc1ccc(Cl)cc1)c1nc(-c2ccc(Cl)c(O)c2)c(-c2ccncc2)[nH]1.Cl [TCMDC-140548] |  |  |  |  |  |  | 5 | 100 | 6.322 | 98 | 86 | 257
COc1ccc2nc(-c3cc(-c4ccc(NC(C)=O)cc4)cnc3N)[nH]c2c1 [TCMDC-135365] |  |  |  |  |  |  | 0 | 93 | 5.906 | 73 | 55 | 501
CC(C)(CNCc1ccc(OC(F)(F)F)cc1)c1nc(-c2ccc(Cl)c(O)c2)c(-c2ccncc2)[nH]1.Cl [TCMDC-140708] |  |  |  |  |  |  | 0 | 100 | 6.263 | 99 | 38 | 438
CN1CCC=C(C(=O)NCC(C)(C)c2nc(-c3ccc(Cl)c(O)c3)c(-c3ccncc3)[nH]2)C1.Cl [TCMDC-140700] |  |  |  |  |  |  | 0 | 96 | 6 | 96 | 39 | 213
CC(C)(CNC(=O)C1CCN(CCOc2ccc(F)c(F)c2)CC1)c1nc(-c2ccc(Cl)c(O)c2)c(-c2ccncc2)[nH]1.Cl [TCMDC-141136] |  |  |  |  |  |  | 0 | 100 | 6.5 | 19 | 41 | 664
CC(C)(NCc1ncc[nH]1)c1nc(-c2ccc(Cl)c(O)c2)c(-c2ccncc2)[nH]1.Cl [TCMDC-140686] |  |  |  |  |  |  | 3 | 95 |  | 97 | 42 | 144
Nc1ncc(-c2cn[nH]c2)cc1-c1nc2cc(Cl)cnc2[nH]1 [TCMDC-133562] |  |  |  |  |  |  | 1 | 100 | 6.039 | 70 | 40 | 280
CNCC(C)(C)c1nc(-c2ccc(Cl)c(O)c2)c(-c2ccncc2)[nH]1.Cl [TCMDC-140762] |  |  |  |  |  |  | 0 | 98 | 6.133 | 96 | 46 | 49
CC(C)(CNCc1ccc(F)c(F)c1)c1nc(-c2ccc(Cl)c(O)c2)c(-c2ccncc2)[nH]1.Cl [TCMDC-140672] |  |  |  |  |  |  | 2 | 100 | 6.181 | 89 | 74 | 451
COc1ccc(CNCC(C)(C)c2nc(-c3ccc(Cl)c(O)c3)c(-c3ccncc3)[nH]2)cc1.Cl [TCMDC-140538] |  |  |  |  |  |  | 1 | 100 | 6.447 | 99 | 76 | 186
CCn1c(-c2nonc2N)nc2c(-c3cccc(NC(=O)Nc4ccc(Cl)cc4)c3)ncc(OCCCN)c21.O=C(O)C(F)(F)F [TCMDC-136152] |  |  |  |  |  |  | 0 | 96 | 6.082 | 72 | 26 | 44
CC(C)(CNC(=O)C1CCN(Cc2ccoc2)CC1)c1nc(-c2ccc(Cl)c(O)c2)c(-c2ccncc2)[nH]1.Cl [TCMDC-140954] |  |  |  |  |  |  | 0 | 93 | 6.062 | 66 | 0 | 425
CC(C)(CNCc1ccccc1)c1nc(-c2ccc(Cl)c(O)c2)c(-c2ccncc2)[nH]1.Cl [TCMDC-140389] |  |  |  |  |  |  | 0 | 100 | 6.27 | 99 | 77 | 190
CC(C)(CNCCOc1ccc(Cl)cc1)c1nc(-c2ccnc(N)n2)c(-c2ccc(Cl)c(O)c2)[nH]1.Cl [TCMDC-141161] |  |  |  |  |  |  | 0 | 97 | 6.079 | 19 | 45 | 755
Nc1ncc(-c2cn[nH]c2)cc1-c1nc2ccc(Cl)cc2[nH]1 [TCMDC-133560] |  |  |  |  |  |  | 0 | 100 | 6.098 | 100 | 46 | 834
CC(C)(CNC(=O)C1CCN(CCOc2ccc(Cl)cc2)CC1)c1nc(-c2ccc(Cl)c(O)c2)c(-c2ccncc2)[nH]1.Cl [TCMDC-141124] |  |  |  |  |  |  | 7 | 100 | 6.149 | 5 | 40 | 471
Cc1cccc2[nH]c(-c3cc(-c4cn[nH]c4)cnc3N)nc12 [TCMDC-133561] |  |  |  |  |  |  | 0 | 100 | 6.6562 | 93 | 37 | 296
CC(C)(CNCc1ccc(C(F)(F)F)cc1)c1nc(-c2ccnc(N)n2)c(-c2ccc(Cl)c(O)c2)[nH]1.Cl [TCMDC-141162] |  |  |  |  |  |  | 0 | 100 | 6.817 | 37 | 32 | 353
COc1ccc(C(=O)NCC(C)(C)c2nc(-c3ccc(Cl)c(O)c3)c(-c3ccncc3)[nH]2)cc1OCCN(C(C)C)C(C)C.Cl [TCMDC-140736] |  |  |  |  |  |  | 4 | 100 | 6.192 | 96 | 62 | 387
